Experimental data published in US20230074545A1, “TREATMENT OF CANCER WITH CDK12/13 INHIBITORS” (Kinnate Biopharma Inc., priority 2019, published 2023).

What was measured:
Assay in all cases: Radiometric kinase panel
Format in all cases: biochemical
PAK2 = target: T1, PAK2 (Homo sapiens, UniProt Q13177)
T1 construct: either as full-length or enzymatically active fragments; purchased ProQinase GmbH (Reaction Biology)
In short: (§1)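 Activity was measured radiometrically from [gamma-33P]-ATP incorporation into substrate. The kinases were recombinant human GST- or His-tagged proteins, full-length or active fragments, expressed in Sf9 or E. coli. Compound in 10% DMSO was added before the enzyme/substrate mix, which started the reaction.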

SIK1 = target: T2, SIK1 (Homo sapiens, UniProt P57059)
T2 construct: either as full-length or enzymatically active fragments; purchased ProQinase GmbH (Reaction Biology)
In short: as §1

PKCalpha = target: T3, PKCalpha (Homo sapiens, UniProt P17252)
T3 construct: either as full-length or enzymatically active fragments; purchased ProQinase GmbH (Reaction Biology)
In short: as §1

EPHA1 = target: T4, EPHA1 (Homo sapiens, UniProt P21709)
T4 construct: either as full-length or enzymatically active fragments; purchased ProQinase GmbH (Reaction Biology)
In short: as §1

MARK3 = target: T5, MARK3 (Homo sapiens, UniProt P27448)
T5 construct: either as full-length or enzymatically active fragments; purchased ProQinase GmbH (Reaction Biology); host or cells: Sf9 insect cells or E. coli
In short: as §1

SNARK = target: T6, SNARK (Homo sapiens, UniProt Q9H093)
T6 construct: purchased ProQinase GmbH (Reaction Biology)
In short: as §1

p38gamma = target: T7, p38gamma (Homo sapiens, UniProt P53778)
T7 construct: either as full-length or enzymatically active fragments; purchased ProQinase GmbH (Reaction Biology); host or cells: Sf9 insect cells or E. coli (not specified per kinase)
In short: as §1

PKCdelta = target: T8, PKCdelta (Homo sapiens, UniProt Q05655)
T8 construct: purchased ProQinase GmbH (Reaction Biology)
In short: as §1

MTOR = target: T9, MTOR (Homo sapiens, UniProt P42345)
T9 construct: purchased ProQinase GmbH (Reaction Biology); host or cells: Sf9 insect cells or E. coli (not specified per kinase)
In short: as §1

MLK4 = target: T10, MLK4 (Homo sapiens, UniProt Q5TCX8)
T10 construct: either as full-length or enzymatically active fragments; purchased ProQinase GmbH (Reaction Biology); host or cells: Sf9 insect cells or E. coli (not specified per kinase)
In short: as §1

PRKD2 = target: T11, PRKD2 (Homo sapiens, UniProt Q9BZL6)
T11 construct: either as full-length or enzymatically active fragments; purchased ProQinase GmbH (Reaction Biology); host or cells: Sf9 insect cells or E. coli
In short: as §1

MARK4 = target: T12, MARK4 (Homo sapiens, UniProt Q96L34)
T12 construct: purchased ProQinase GmbH (Reaction Biology)
In short: as §1

PLK1 = target: T13, PLK1 (Homo sapiens, UniProt P53350)
T13 construct: either as full-length or enzymatically active fragments; purchased ProQinase GmbH (Reaction Biology)
In short: as §1

EIF2AK2 = target: T14, EIF2AK2 (Homo sapiens, UniProt P19525)
T14 construct: either as full-length or enzymatically active fragments; purchased ProQinase GmbH (Reaction Biology); host or cells: Sf9 insect cells or E. coli
In short: as §1

MELK = target: T15, MELK (Homo sapiens, UniProt Q14680)
T15 construct: purchased ProQinase GmbH (Reaction Biology); host or cells: Sf9 insect cells or E. coli (not specified per kinase)
In short: as §1

COT = target: T16, COT (Homo sapiens, UniProt P41279)
T16 construct: either as full-length or enzymatically active fragments; purchased ProQinase GmbH (Reaction Biology)
In short: as §1

KIT = target: T17, KIT (Homo sapiens, UniProt P10721)
T17 construct: either as full-length or enzymatically active fragments; purchased ProQinase GmbH (Reaction Biology)
In short: as §1

TBK1 = target: T18, TBK1 (Homo sapiens, UniProt Q9UHD2)
T18 construct: either as full-length or enzymatically active fragments; purchased ProQinase GmbH (Reaction Biology)
In short: as §1

RPS6KA3 = target: T19, RPS6KA3 (Homo sapiens, UniProt P51812)
T19 construct: purchased ProQinase GmbH (Reaction Biology); host or cells: Sf9 insect cells or E. coli (not specified per kinase)
In short: as §1

ERBB2 = target: T20, ERBB2 (Homo sapiens, UniProt P04626)
T20 construct: either as full-length or enzymatically active fragments; purchased ProQinase GmbH (Reaction Biology)
In short: as §1

TAOK2 = target: T21, TAOK2 (Homo sapiens, UniProt Q9UL54)
T21 construct: either as full-length or enzymatically active fragments; purchased ProQinase GmbH (Reaction Biology)
In short: as §1

PHKG1 = target: T22, PHKG1 (Homo sapiens, UniProt Q16816)
T22 construct: either as full-length or enzymatically active fragments; purchased ProQinase GmbH (Reaction Biology)
In short: as §1

IRAK1 = target: T23, IRAK1 (Homo sapiens, UniProt P51617)
T23 construct: either as full-length or enzymatically active fragments; purchased ProQinase GmbH (Reaction Biology)
In short: as §1

PAK7 = target: T24, PAK7 (Homo sapiens, UniProt Q9P286)
T24 construct: either as full-length or enzymatically active fragments; purchased ProQinase GmbH (Reaction Biology); host or cells: Sf9 insect cells or E. coli
In short: as §1

TIE2 = target: T25, TIE2 (Homo sapiens, UniProt Q02763)
T25 construct: either as full-length or enzymatically active fragments; purchased ProQinase GmbH (Reaction Biology); host or cells: Sf9 insect cells or E. coli
In short: as §1

MAP4K4 = target: T26, MAP4K4 (Homo sapiens, UniProt O95819)
T26 construct: purchased ProQinase GmbH (Reaction Biology)
In short: as §1

WEE1 = target: T27, WEE1 (Homo sapiens, UniProt P30291)
T27 construct: either as full-length or enzymatically active fragments; purchased ProQinase GmbH (Reaction Biology)
In short: as §1

BMPR1B = target: T28, BMPR1B (Homo sapiens, UniProt O00238)
T28 construct: either as full-length or enzymatically active fragments; purchased ProQinase GmbH (Reaction Biology)
In short: as §1

MAP4K2 = target: T29, MAP4K2 (Homo sapiens, UniProt Q12851)
T29 construct: purchased ProQinase GmbH (Reaction Biology)
In short: as §1

NEK4 = target: T30, NEK4 (Homo sapiens, UniProt P51957)
T30 construct: purchased ProQinase GmbH (Reaction Biology)
In short: as §1

ROCK2 = target: T31, ROCK2 (Homo sapiens, UniProt O75116)
T31 construct: either as full-length or enzymatically active fragments; purchased ProQinase GmbH (Reaction Biology)
In short: as §1

T22 sequence (Q16816 whole entry, the tested form may be a part): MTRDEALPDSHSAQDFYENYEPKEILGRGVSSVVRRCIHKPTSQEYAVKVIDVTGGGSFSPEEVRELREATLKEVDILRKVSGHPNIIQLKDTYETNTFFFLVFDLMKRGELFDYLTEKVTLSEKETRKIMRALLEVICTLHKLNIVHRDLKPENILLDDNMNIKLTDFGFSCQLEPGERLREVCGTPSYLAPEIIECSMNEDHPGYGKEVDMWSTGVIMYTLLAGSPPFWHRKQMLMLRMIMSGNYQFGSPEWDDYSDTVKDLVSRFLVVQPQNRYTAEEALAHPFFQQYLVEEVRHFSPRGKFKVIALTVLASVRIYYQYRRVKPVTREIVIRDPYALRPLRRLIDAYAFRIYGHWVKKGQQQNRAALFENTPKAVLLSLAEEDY
T31 sequence (O75116 whole entry, the tested form may be a part): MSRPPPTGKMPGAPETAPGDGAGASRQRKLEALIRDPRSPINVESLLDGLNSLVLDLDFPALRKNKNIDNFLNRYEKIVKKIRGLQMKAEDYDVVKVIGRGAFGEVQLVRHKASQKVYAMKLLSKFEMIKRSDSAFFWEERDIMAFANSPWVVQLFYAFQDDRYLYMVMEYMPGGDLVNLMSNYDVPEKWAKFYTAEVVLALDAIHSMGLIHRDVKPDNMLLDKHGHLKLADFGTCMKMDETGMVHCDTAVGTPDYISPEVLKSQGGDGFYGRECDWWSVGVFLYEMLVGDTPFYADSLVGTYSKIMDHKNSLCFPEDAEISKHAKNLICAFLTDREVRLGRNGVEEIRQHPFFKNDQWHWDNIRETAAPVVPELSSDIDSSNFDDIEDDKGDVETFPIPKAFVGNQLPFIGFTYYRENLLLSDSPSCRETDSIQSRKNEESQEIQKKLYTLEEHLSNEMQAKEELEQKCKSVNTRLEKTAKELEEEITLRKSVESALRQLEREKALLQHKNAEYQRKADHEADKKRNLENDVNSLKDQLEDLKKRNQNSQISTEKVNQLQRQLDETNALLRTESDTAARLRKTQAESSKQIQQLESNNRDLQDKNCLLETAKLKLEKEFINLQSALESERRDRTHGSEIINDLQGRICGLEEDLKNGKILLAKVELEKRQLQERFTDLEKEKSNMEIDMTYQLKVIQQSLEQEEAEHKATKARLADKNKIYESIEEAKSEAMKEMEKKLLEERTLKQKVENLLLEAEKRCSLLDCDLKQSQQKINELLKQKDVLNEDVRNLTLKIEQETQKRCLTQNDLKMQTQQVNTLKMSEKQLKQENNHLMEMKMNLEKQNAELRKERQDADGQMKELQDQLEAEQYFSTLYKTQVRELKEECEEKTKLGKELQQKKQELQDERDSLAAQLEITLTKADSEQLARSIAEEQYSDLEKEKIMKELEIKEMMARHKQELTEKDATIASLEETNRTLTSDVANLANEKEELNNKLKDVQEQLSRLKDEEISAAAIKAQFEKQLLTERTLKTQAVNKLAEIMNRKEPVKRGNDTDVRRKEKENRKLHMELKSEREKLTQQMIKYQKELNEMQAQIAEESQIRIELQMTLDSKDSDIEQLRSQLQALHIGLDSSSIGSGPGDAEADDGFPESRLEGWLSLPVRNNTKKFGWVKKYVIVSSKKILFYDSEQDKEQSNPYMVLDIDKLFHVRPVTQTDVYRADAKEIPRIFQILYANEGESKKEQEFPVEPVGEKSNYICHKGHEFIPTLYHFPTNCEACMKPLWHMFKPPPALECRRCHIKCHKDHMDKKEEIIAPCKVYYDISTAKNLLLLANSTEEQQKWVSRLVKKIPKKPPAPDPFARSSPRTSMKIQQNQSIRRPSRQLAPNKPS
T17 sequence (P10721 26-976): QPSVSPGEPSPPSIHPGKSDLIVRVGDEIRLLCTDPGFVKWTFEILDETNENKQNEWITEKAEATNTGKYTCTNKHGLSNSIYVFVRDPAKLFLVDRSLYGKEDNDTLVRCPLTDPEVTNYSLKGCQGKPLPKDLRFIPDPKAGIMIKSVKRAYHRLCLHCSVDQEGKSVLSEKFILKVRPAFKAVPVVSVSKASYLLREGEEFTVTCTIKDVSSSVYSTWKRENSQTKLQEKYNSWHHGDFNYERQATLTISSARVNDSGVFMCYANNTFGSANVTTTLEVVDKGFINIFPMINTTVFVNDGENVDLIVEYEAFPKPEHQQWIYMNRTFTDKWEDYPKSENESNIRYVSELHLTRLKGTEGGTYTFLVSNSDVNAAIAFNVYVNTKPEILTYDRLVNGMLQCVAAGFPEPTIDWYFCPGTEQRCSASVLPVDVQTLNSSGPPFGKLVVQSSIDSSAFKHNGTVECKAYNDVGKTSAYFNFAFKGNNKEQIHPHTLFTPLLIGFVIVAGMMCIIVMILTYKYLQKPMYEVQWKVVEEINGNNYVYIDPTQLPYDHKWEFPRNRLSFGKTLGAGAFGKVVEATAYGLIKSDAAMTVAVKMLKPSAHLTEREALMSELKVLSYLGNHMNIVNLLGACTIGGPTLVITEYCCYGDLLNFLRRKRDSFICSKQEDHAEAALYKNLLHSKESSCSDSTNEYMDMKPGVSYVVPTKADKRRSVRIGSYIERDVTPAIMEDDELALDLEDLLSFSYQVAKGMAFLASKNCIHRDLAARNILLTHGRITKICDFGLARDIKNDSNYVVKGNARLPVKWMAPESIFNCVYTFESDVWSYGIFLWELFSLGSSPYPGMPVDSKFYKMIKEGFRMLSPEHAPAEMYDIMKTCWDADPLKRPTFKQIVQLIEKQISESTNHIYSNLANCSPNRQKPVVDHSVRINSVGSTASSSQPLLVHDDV
T16 sequence (P41279 whole entry, the tested form may be a part): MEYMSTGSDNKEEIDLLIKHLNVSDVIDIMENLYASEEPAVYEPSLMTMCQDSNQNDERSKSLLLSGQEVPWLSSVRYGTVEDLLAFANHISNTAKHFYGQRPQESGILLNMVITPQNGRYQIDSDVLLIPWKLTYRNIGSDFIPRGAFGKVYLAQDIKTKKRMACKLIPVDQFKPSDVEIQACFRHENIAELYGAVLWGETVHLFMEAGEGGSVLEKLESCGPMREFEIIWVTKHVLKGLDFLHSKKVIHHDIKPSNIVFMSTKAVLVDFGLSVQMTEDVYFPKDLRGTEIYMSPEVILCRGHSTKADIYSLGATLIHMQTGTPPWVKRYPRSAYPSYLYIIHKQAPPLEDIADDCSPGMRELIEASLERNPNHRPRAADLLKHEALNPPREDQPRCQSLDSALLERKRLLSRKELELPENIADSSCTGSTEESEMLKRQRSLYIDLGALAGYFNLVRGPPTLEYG
T12 sequence (Q96L34 whole entry): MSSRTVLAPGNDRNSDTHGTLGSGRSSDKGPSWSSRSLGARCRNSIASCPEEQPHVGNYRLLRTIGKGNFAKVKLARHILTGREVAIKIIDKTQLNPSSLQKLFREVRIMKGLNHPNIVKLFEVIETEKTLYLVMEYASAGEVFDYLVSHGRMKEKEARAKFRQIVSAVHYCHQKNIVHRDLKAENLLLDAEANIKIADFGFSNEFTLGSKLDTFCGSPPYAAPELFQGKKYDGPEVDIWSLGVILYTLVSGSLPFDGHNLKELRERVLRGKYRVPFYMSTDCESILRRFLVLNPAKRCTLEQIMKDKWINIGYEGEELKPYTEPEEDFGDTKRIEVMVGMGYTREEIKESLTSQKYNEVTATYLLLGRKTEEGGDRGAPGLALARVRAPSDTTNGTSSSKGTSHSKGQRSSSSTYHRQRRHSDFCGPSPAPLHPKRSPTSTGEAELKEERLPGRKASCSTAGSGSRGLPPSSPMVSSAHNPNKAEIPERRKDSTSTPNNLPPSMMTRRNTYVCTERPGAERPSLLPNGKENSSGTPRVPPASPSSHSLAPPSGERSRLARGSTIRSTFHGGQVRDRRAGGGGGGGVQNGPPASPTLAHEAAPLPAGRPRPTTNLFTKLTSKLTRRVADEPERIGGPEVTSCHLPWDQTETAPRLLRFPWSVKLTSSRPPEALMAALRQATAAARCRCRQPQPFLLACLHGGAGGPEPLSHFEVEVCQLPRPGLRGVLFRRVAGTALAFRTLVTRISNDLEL
T7 sequence (P53778 whole entry, the tested form may be a part): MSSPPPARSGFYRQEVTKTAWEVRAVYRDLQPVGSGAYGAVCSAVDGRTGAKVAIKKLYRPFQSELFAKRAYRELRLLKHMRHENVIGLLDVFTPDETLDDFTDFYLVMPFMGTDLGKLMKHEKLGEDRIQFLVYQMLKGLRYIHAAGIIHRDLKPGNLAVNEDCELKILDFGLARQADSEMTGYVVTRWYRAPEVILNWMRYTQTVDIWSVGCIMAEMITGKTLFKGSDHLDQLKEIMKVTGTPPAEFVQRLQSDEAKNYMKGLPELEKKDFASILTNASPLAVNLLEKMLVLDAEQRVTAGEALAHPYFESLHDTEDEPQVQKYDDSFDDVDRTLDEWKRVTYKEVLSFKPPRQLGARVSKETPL

Q: Which inhibition at 1 µM (PAK2) does the source give for `C=CC(=O)Nc1ccc(C(=O)N2CC[C@@H](Nc3ncc(C#N)cn3)C2)cc1` [Compound 4, (R)-N-(4-(3-((5-cyanopyrimidin-2-yl)amino)pyrrolidine-1-carbonyl)phenyl)acrylamide] here?
A: The inhibition at 1 µM was 16%.

Q: What about the inhibition at 1 µM (SIK1) of the same molecule?
A: The inhibition at 1 µM was 7%.

Q: And the inhibition at 1 µM (PKCalpha)?
A: The inhibition at 1 µM was -5%.

Q: What about the inhibition at 1 µM (EPHA1) of the same molecule?
A: Its inhibition at 1 µM is 3%.

Q: What about the inhibition at 1 µM (MARK3) of the same molecule?
A: The inhibition at 1 µM was -17%.

Q: And the inhibition at 1 µM (SNARK)?
A: Its inhibition at 1 µM is 0%.

Q: And the inhibition at 1 µM (p38gamma)?
A: Its inhibition at 1 µM is 10%.

Q: What about the inhibition at 1 µM (PKCdelta) of the same molecule?
A: Its inhibition at 1 µM is -2%.

Q: What about the inhibition at 1 µM (MTOR) of the same molecule?
A: The inhibition at 1 µM was 1%.

Q: What about the inhibition at 1 µM (MLK4) of the same molecule?
A: Its inhibition at 1 µM is 9%.

Q: And the inhibition at 1 µM (PRKD2)?
A: The inhibition at 1 µM was 12%.

Q: What about the inhibition at 1 µM (MARK4) of the same molecule?
A: Its inhibition at 1 µM is -1%.

Q: And the inhibition at 1 µM (PLK1)?
A: The inhibition at 1 µM was 7%.

Q: And the inhibition at 1 µM (EIF2AK2)?
A: The inhibition at 1 µM was 15%.

Q: What about the inhibition at 1 µM (MELK) of the same molecule?
A: The inhibition at 1 µM was 1%.

Q: And the inhibition at 1 µM (COT)?
A: Its inhibition at 1 µM is 6%.

Q: What about the inhibition at 1 µM (KIT) of the same molecule?
A: The inhibition at 1 µM was -4%.

Q: And the inhibition at 1 µM (TBK1)?
A: Its inhibition at 1 µM is -4%.

Q: And the inhibition at 1 µM (RPS6KA3)?
A: The inhibition at 1 µM was 1%.

Q: What about the inhibition at 1 µM (ERBB2) of the same molecule?
A: The inhibition at 1 µM was 5%.

Q: What about the inhibition at 1 µM (TAOK2) of the same molecule?
A: Its inhibition at 1 µM is 5%.

Q: What about the inhibition at 1 µM (PHKG1) of the same molecule?
A: Its inhibition at 1 µM is 18%.

Q: And the inhibition at 1 µM (IRAK1)?
A: Its inhibition at 1 µM is 2%.

Q: And the inhibition at 1 µM (PAK7)?
A: The inhibition at 1 µM was 12%.

Q: What about the inhibition at 1 µM (TIE2) of the same molecule?
A: Its inhibition at 1 µM is -18%.

Q: What about the inhibition at 1 µM (MAP4K4) of the same molecule?
A: Its inhibition at 1 µM is 0%.

Q: And the inhibition at 1 µM (WEE1)?
A: Its inhibition at 1 µM is -5%.

Q: What about the inhibition at 1 µM (BMPR1B) of the same molecule?
A: Its inhibition at 1 µM is 6%.

Q: What about the inhibition at 1 µM (MAP4K2) of the same molecule?
A: Its inhibition at 1 µM is -1%.

Q: And the inhibition at 1 µM (NEK4)?
A: The inhibition at 1 µM was -1%.

Q: What about the inhibition at 1 µM (ROCK2) of the same molecule?
A: The inhibition at 1 µM was 19%.
